{"source": "patent US20110015267A1", "about": "(priority 2009, published 2011)", "key": {"[1]": {"assay": "Solubility limit of magnesium valproate salts in purified water USP (incremental addition)", "method": "The experiment was repeated but valproate was added as L-carnitine magnesium valproate. Incremental portions of L-carnitine magnesium valproate were added to purified water until the solubility limit was reached, as indicated by the presence of white solid in the colorless aqueous supernatant. […] The solution was divided into portions, and known masses of L-carnitine inner salt, accurately weighed, were added to provide solutions having the compositions shown in Table 2. Each solution was tested by two analysts."}, "[2]": {"assay": "Method B: incremental addition of magnesium valproate salt to L-carnitine inner salt solution"}, "[3]": {"assay": "Conventional valproates combined with L-carnitine inner salt in water", "format": "physicochemical", "conditions": "for Result When Combined With L-Carnitine Inner Salt in Water: dissolution / stability behaviour of the valproate in water", "from_the_text": "The inventor investigated methods for the preparation of long-needed, palatable liquid compositions having quantitatively precise defined proportions of valproate and L-carnitine in water. […] Instead, oily droplets of valproic acid adhered to the formulation vessel, making it impossible to formulate compositions having quantitatively precise defined proportions of valproate. […] This lack of purity renders it impossible to weigh calculated quantities of the magnesium valproate of '850 that are required for a quantitatively precise defined formulation and formulate a composition having the corresponding quantitatively precise defined proportions of valproate and L-carnitine; the weighed quantities of the magnesium valproate of '850 will contain variable proportions of impurities that are water-soluble, partially water-soluble, and water-insoluble as well as the magnesium valproate, and the resulting formulation will contain less than quantitatively precise proportions of valproate. […] Potassium valproate, cesium valproate, and rubidium valproate were not tested, because high concentrations of potassium, cesium, and rubidium are toxic."}, "[4]": {"conditions": "cited from earlier work"}, "[5]": {"conditions": "cited from earlier work", "remark": "listed apart in the source"}, "[6]": {"conditions": "reported; not tested by the inventor; cited from earlier work"}, "[7]": {"assay": "Sterilization of liquid dosage form by heating or filtration", "format": "physicochemical", "from_the_text": "Therefore, aqueous solutions of the invention must be prepared to be free of microbial contaminants. Most preferably, water that has been purified to meet US Pharmacopeial standards is used in preparing aqueous solutions of the invention. [U.S. Pharmacopeia, Volume 32. U.S. Pharmacopeial Convention, Rockville, Md. USP Monograph entitled “Purified Water” and chapter entitled “Water for Pharmaceutical Purposes”<1231>.] Water can be purified in known ways to be free of trace contaminants and microbes that cause undesirable side reactions when administered therapeutically to a subject. However, L-carnitine decomposes when subjected to heating. Therefore, the inventor has used aseptic processing and sterilization by filtration through a filter having a pore-size sufficiently small to allow passage of the composition of the invention through the pores but prevent passage of microbes to prepare compositions for pharmaceutical use.\nA palatable liquid dosage form of the invention is divided into portions. Each portion is subjected to sterilization by (a) heating or (b) filtration through a filter membrane having a […] pore size."}, "[8]": {"conditions": "with about 1,000 mg/mL L-carnitine"}}, "note": "Entries after “also recorded” stand apart in the source; their conditions may differ. Where a name gives a salt, the structure may show the parent alone.", "data": [{"molecule": "CCCC(CCC)C(=O)[O-].CCCC(CCC)C(=O)[O-].C[N+](C)(C)C[C@H](O)CC(=O)[O-].[Mg+2]", "note": "[L-carnitine magnesium valproate, L-Carnitine magnesium valproate]", "values": [{"measurement": "solubility limit, valproate concentration of the solution", "setting": "[1]", "value": "about 150 mg/mL"}, {"measurement": "valproate concentration at the limit of solubility", "setting": "[2]; in aqueous L-carnitine inner salt, about 1,000 mg/mL L-carnitine", "value": "about 150 mg/mL"}, {"measurement": "appearance of solution at the limit of solubility", "setting": "[2]; [8]", "value": "clear and colorless"}, {"measurement": "odor of solution at the limit of solubility", "setting": "[2]; [8]", "value": "no odor"}, {"measurement": "pH of solution", "setting": "[2]; [8]", "value": "near neutral"}, {"measurement": "taste of solution at the limit of solubility", "setting": "[2]; [8]", "value": "no taste"}]}, {"molecule": "CCCC(CCC)C(=O)[O-].[Na+]", "note": "[Sodium valproate]", "values": [{"measurement": "Result When Combined With L-Carnitine Inner Salt in Water: solution appearance", "setting": "[3]", "value": "weighing. Solution was clear &"}, {"measurement": "Result When Combined With L-Carnitine Inner Salt in Water", "setting": "[3]", "value": "rapidly adsorbed water from the atmosphere; also recorded: Sodium valproate is hygroscopic"}]}, {"molecule": "CCCC(CCC)C(=O)O", "note": "[Valproic acid, 2-propylpentanoic acid]", "values": [{"measurement": "Result When Combined With L-Carnitine Inner Salt in Water", "setting": "[3]; listed as valproic acid", "value": "poorly soluble in water"}, {"measurement": "solubility in water", "setting": "[4]", "value": "very slightly soluble in water"}]}, {"molecule": "CCCC(CCC)C(=O)O", "note": "[valproate]", "values": [{"measurement": "absorption from the gastrointestinal tract", "setting": "[5]; all conventional dosage forms", "value": "rapidly and nearly completely absorbed"}, {"measurement": "time of peak plasma concentrations after ingestion", "setting": "[5]; all conventional dosage forms", "value": "1 to 4", "unit": "h"}, {"measurement": "excreted in the urine as an L-carnitine ester", "setting": "[5]; humans and other mammals", "value": 3, "unit": "%"}, {"measurement": "metabolized by β- and ω-oxidations in mitochondria and the cytosol", "setting": "[5]; humans and other mammals", "value": 17, "unit": "%"}, {"measurement": "metabolized in the liver by direct glucuronidation", "setting": "[5]; humans and other mammals", "value": 80, "unit": "%"}]}, {"molecule": "CCCC(CCC)C(=O)O", "note": "[Divalproex sodium]", "values": [{"measurement": "Result When Combined With L-Carnitine Inner Salt in Water", "setting": "[3]", "value": "decomposed on addition to water"}]}, {"molecule": "Calcium valproate", "values": [{"measurement": "carcinogenicity", "setting": "[6]", "value": "been reported to be carcinogenic."}]}, {"molecule": "Magnesium valproate hydrate", "values": [{"measurement": "pH of solution", "setting": "[2]; [8]", "value": "near neutral"}]}, {"molecule": "C[N+](C)(C)CC(O)CC(=O)[O-]", "note": "[L-carnitine, L-Carnitine inner salt]", "values": [{"measurement": "stability when subjected to heating", "setting": "[7]", "value": "decomposes"}]}, {"molecule": "Magnesium valproate", "values": [{"measurement": "Result When Combined With L-Carnitine Inner Salt in Water", "setting": "[3]", "value": "did not dissolve completely in water; also recorded: failed to dissolve completely;"}]}]}
